Source: publication PMC8369945 (Hepatology Communications, 2021)
Entries after “also recorded” stand apart in the source; their conditions may differ.

How the values were obtained:
[1] = test system: db/db mice; test: db/db mouse model of T2DM; assay type: in vivo; details: 10 days once daily p.o., pio 30, PXL065 20, d-S-pio 20 mg/kg
[2] = Phase 1a clinical study, pharmacokinetics in healthy subjects; details: human, single 22.5 mg PXL065
[3] = test system: C57BL/6J male mice; test: Weight gain study in mouse; assay type: in vivo; details: normal C57BL/6J male mice, pio 30, PXL065 15, d-S-pio 15 mg/kg/day, twice daily; for body weight versus vehicle: after 10 days of dosing
[4] = test system: C57BL/6J mice on CD or MCD diet; test: Choline-deficient; assay type: in vivo, mouse; details: for markers of NASH progression: two diet models (d-S-pio only CD)
[5] = biological target: T1, PPARα (Homo sapiens, UniProt Q07869); test: PPARα coactivator recruitment
T1 sequence (Q07869 1-468): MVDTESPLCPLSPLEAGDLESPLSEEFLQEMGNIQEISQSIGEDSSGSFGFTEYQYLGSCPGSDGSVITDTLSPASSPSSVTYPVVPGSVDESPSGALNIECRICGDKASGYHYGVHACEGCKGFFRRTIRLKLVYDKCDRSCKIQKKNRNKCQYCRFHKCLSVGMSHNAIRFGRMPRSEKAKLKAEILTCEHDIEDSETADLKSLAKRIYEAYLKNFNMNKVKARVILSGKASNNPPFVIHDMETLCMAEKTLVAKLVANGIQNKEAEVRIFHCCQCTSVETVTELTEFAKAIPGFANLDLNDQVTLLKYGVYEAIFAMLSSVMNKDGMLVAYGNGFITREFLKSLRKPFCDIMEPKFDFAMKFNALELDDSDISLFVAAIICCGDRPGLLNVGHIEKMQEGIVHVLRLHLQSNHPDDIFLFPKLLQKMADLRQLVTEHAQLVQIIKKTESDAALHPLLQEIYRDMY

[6] = biological target: T2, PPARδ (Homo sapiens, UniProt Q03181); test: PPARδ coactivator recruitment
T2 sequence (Q03181 1-441): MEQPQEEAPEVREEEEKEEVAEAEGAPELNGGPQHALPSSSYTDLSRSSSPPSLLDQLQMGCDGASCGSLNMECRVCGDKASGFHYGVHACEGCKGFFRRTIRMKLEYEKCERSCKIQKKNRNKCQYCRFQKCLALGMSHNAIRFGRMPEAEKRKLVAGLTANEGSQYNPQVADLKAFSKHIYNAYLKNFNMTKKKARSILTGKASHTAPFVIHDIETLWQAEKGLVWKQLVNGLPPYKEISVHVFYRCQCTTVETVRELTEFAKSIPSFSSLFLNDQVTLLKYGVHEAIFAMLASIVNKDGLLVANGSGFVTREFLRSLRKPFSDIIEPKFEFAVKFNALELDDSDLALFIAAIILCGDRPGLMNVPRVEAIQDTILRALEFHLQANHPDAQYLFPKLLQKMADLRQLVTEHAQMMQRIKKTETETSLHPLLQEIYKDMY

| Structure (SMILES) | inflammatory markers serum amyloid A, IL-1β and IL-6 [1] | serum adiponectin [1] | exposure to (R)-pioglitazone, higher than in the 45-mg Actos group [2] [%] | exposure to the (S)-enantiomer, lower than in the 45-mg Actos group [2] [%] | body weight versus vehicle [3] | adiponectin ([4]; CD diet mice) | reduction of hepatic steatosis and triglycerides, compared with pioglitazone ([4]; CD diet mice) | markers of NASH progression [4] | serum insulin [1] | fluid retention (total body water) [3] | hepatic fibrosis ([4]; either diet) | agonist activity at PPARα [5] | body-weight loss compared with vehicle- or PXL065-treated animals ([4]; MCD diet) | agonist activity at PPARδ [6] |
| --- | --- | --- | --- | --- | --- | --- | --- | --- | --- | --- | --- | --- | --- | --- |
| [2H][C@]1(Cc2ccc(OCCc3ccc(CC)cn3)cc2)SC(=O)NC1=O [PXL065, deuterated (R)‐pioglitazone] | significantly decreased | nonsignificant trend | 19 | 42 | did not increase body weight | increase | superior to pioglitazone | significantly affected all markers of NASH progression | – | – | – | – | – | – |
| [2H][C@@]1(Cc2ccc(OCCc3ccc(CC)cn3)cc2)SC(=O)NC1=O [d‐S‐pio, deuterated (S)‐pioglitazone] | no effect | significantly increased | – | – | significantly increased body weight over vehicle | increase | – | overall without effect | trend toward significant reduction | trend was observed for increased fluid retention; also recorded: a trend was observed | antifibrotic effect similar to that observed with PXL065 and pioglitazone | – | – | – |
| CCc1ccc(CCOc2ccc(CC3SC(=O)NC3=O)cc2)nc1 (centres unmarked) [pioglitazone, reference compound] | significantly decreased | significantly increased | – | – | significantly increased body weight over vehicle | increase | – | significantly affected all markers of NASH progression | significantly decreased | trend was observed for increased fluid retention; also recorded: significant increase in total body water | – | Neither pioglitazone, PXL065, nor d‐S‐pio showed binding to PPARα or agonist activity at PPARα or PPARδ | weight loss tended to be less | Neither pioglitazone, PXL065, nor d‐S‐pio showed binding to PPARα or agonist activity at PPARα or PPARδ |
